{
  "source": "patent US8722731B2",
  "about": "“Furanyl compounds and the use thereof” (NovoMedix, LLC, priority 2010, dated 2014)",
  "key": {"RT-4": {"tested_on": "RT-4", "assay": "IC50 cell-based assay, adherent cells, RT-4", "conditions": "Homo sapiens, Bladder, papilloma, 72 hours, read-out: IC50 of Compounds in Adherent Cell Types", "procedure": "(§1) In one embodiment, the IC50s of the compounds provided herein were determined in cell-based assays using adherent cells. In one embodiment, the activity of the compounds provided herein were determined in a cell-based assay using the triple negative breast cancer cell line MDA-MB-468. In one embodiment, the adherent cells used in the cell-based assays may be a cell type selected from Table 1. In one embodiment, the cell-based assay may be carried out as provided herein. On day 0, cells were seeded at 20,000 cells per well in 100 µL of media into individual wells of a 96-well tissue culture plate. The next day, compounds were diluted to twice the desired final concentration and added in 100 µL of media for a final volume of 200 μL. Standard solutions for each compound were prepared at 1000× concentration in DMSO. The highest concentration was 30 mM. Serial 1:1 dilutions were made from there for a 6- or 9-point curve (e.g., 30 mM, 15 mM, 7.5 mM, etc). Compounds were then diluted 1:500 in media, and 100 µL of the resulting solution was added to each well for a final dilution of 1:1000. Each concentration of compound was tested in triplicate. Cells were incubated at 37° C. with 5% CO2. After 72 hours, 20 μL of CellTiter 96 Aqueous One Solution Cell Proliferation Assay (Promega) was added to each well. Cells were placed back in the incubator, and the absorbance at 490 nm was read after 2-3 hours. The concentration of compound that decreased the number of metabolically active cells by 50% was determined and reported as the IC50. “Percent Viability” was determined by subtracting the average background value (media only) and expressed as a ratio to the average value obtained from cells treated with only DMSO."}, "U87-MG": {"tested_on": "U87-MG", "assay": "IC50 cell-based assay, adherent cells, U87-MG", "conditions": "Homo sapiens, U-87 MG, Brain, glioblastoma, 72 hours, read-out: IC50 of Compounds in Adherent Cell Types", "procedure": "as §1"}, "[1]": {"tested_on": "triple negative breast cancer cell line MDA-MB-468", "assay": "IC50 cell-based assay, adherent cells, MDA-MB-468", "conditions": "Homo sapiens", "procedure": "as §1\nThe IC50s of the compounds provided herein were determined in cell-based assay using triple negative breast cancer cell line MDA-MB-468."}, "MCF-7": {"tested_on": "MCF-7", "assay": "IC50 cell-based assay, adherent cells, MCF-7", "conditions": "Homo sapiens, MCF7, Breast, ER+, 72 hours, read-out: IC50 of Compounds in Adherent Cell Types", "procedure": "as §1"}, "SKBR-3": {"tested_on": "SKBR-3", "assay": "IC50 cell-based assay, adherent cells, SKBR-3", "conditions": "Homo sapiens, SK-BR-3, Breast, ER−, 72 hours, read-out: IC50 of Compounds in Adherent Cell Types", "procedure": "as §1"}, "MDA-MB-361": {"tested_on": "MDA-MB-361", "assay": "IC50 cell-based assay, adherent cells, MDA-MB-361", "conditions": "Homo sapiens, Breast, Brain met Her2-neu + ER +, 72 hours, read-out: IC50 of Compounds in Adherent Cell Types", "procedure": "as §1"}, "MDA-MB-231": {"tested_on": "MDA-MB-231", "assay": "IC50 cell-based assay, adherent cells, MDA-MB-231", "conditions": "Homo sapiens, Breast, triple neg, 72 hours, read-out: IC50 of Compounds in Adherent Cell Types", "procedure": "as §1"}, "1937": {"tested_on": "1937", "assay": "IC50 cell-based assay, adherent cells, 1937", "conditions": "Breast, triple neg, 72 hours, read-out: IC50 of Compounds in Adherent Cell Types", "procedure": "as §1"}, "HT-29": {"tested_on": "HT-29", "assay": "IC50 cell-based assay, adherent cells, HT-29", "conditions": "Homo sapiens, Colorectal, adenocarcinoma, 72 hours, read-out: IC50 of Compounds in Adherent Cell Types", "procedure": "as §1"}, "SK-MEL-28": {"tested_on": "SK-MEL-28", "assay": "IC50 cell-based assay, adherent cells, SK-MEL-28", "conditions": "Homo sapiens, Melanoma, 72 hours, read-out: IC50 of Compounds in Adherent Cell Types", "procedure": "as §1"}, "Caki-1": {"tested_on": "Caki-1", "assay": "IC50 cell-based assay, adherent cells, Caki-1", "conditions": "Homo sapiens, Kidney, clear cell carc., skin met, 72 hours, read-out: IC50 of Compounds in Adherent Cell Types", "procedure": "as §1"}, "Hep-G2": {"tested_on": "Hep-G2", "assay": "IC50 cell-based assay, adherent cells, Hep-G2", "conditions": "Homo sapiens, HepG2, Liver, hepatocellular carcinoma, 72 hours, read-out: IC50 of Compounds in Adherent Cell Types", "procedure": "as §1"}, "A549": {"tested_on": "A549", "assay": "IC50 cell-based assay, adherent cells, A549", "conditions": "Homo sapiens, Lung, NSCLC, 72 hours, read-out: IC50 of Compounds in Adherent Cell Types", "procedure": "as §1"}, "H-460": {"tested_on": "H-460", "assay": "IC50 cell-based assay, adherent cells, H-460", "conditions": "Homo sapiens, NCI-H460, Lung, large cell carcinoma, 72 hours, read-out: IC50 of Compounds in Adherent Cell Types", "procedure": "as §1"}, "OVCAR-3": {"tested_on": "OVCAR-3", "assay": "IC50 cell-based assay, adherent cells, OVCAR-3", "conditions": "Homo sapiens, Ovarian, adenocarcinoma, 72 hours, read-out: IC50 of Compounds in Adherent Cell Types", "procedure": "as §1"}, "AsPC-1": {"tested_on": "AsPC-1", "assay": "IC50 cell-based assay, adherent cells, AsPC-1", "conditions": "Homo sapiens, ASPC1, Pancreas, carcinoma, 72 hours, read-out: IC50 of Compounds in Adherent Cell Types", "procedure": "as §1"}, "Panc-1": {"tested_on": "Panc-1", "assay": "IC50 cell-based assay, adherent cells, Panc-1", "conditions": "Homo sapiens, Pancreas, epitheloid carcinoma, 72 hours, read-out: IC50 of Compounds in Adherent Cell Types", "procedure": "as §1"}, "FaDu": {"tested_on": "FaDu", "assay": "IC50 cell-based assay, adherent cells, FaDu", "conditions": "Homo sapiens, Pharynx, squamous cell, 72 hours, read-out: IC50 of Compounds in Adherent Cell Types", "procedure": "as §1"}, "A431": {"tested_on": "A431", "assay": "IC50 cell-based assay, adherent cells, A431", "conditions": "Homo sapiens, A-431, Skin, epidermoid carcinoma, 72 hours, read-out: IC50 of Compounds in Adherent Cell Types", "procedure": "as §1"}, "HL-60": {"tested_on": "HL-60", "assay": "IC50 cell-based assay, suspension cells, HL-60", "conditions": "Homo sapiens, Leukemia, AML, read-out: IC50 of Compounds in Suspension Cell Types", "procedure": "as §1\n(§2) In one embodiment, the IC50s of the compounds provided herein were determined in cell-based assays using suspension cells. In one embodiment, the activity of the compounds provided herein were determined in a cell-based assay using the JeKo-1 cell line (mantle cell lymphoma) or the Pfeiffer cell line (diffuse large B-cell lymphoma). In one embodiment, the suspension cells used in the cell-based assays may be a cell type selected from Table 2. Assays with suspension cells were similar except that 40,000-60,000 cells were added to each well and compounds were added immediately after cell plating."}, "MHH-CALL-4": {"tested_on": "MHH-CALL-4", "assay": "IC50 cell-based assay, suspension cells, MHH-CALL-4", "conditions": "MHHCALL4, Leukemia, B-ALL (CRLF2 Hi), read-out: IC50 of Compounds in Suspension Cell Types", "procedure": "as §1, §2"}, "Kg1a": {"tested_on": "Kg1a", "assay": "IC50 cell-based assay, suspension cells, Kg1a", "conditions": "Homo sapiens, KG-1a, Leukemia, AML, read-out: IC50 of Compounds in Suspension Cell Types", "procedure": "as §1, §2"}, "Nalm-6": {"tested_on": "Nalm-6", "assay": "IC50 cell-based assay, suspension cells, Nalm-6", "conditions": "Homo sapiens, Leukemia, B-ALL, read-out: IC50 of Compounds in Suspension Cell Types", "procedure": "as §1, §2"}, "Nalm-6-VR": {"tested_on": "Nalm-6-VR", "assay": "IC50 cell-based assay, suspension cells, Nalm-6-VR", "conditions": "Leukemia, B-ALL, Vincristine resistant, read-out: IC50 of Compounds in Suspension Cell Types", "procedure": "as §1, §2"}, "SupB15": {"tested_on": "SupB15", "assay": "IC50 cell-based assay, suspension cells, SupB15", "conditions": "Homo sapiens, SUP-B15, Leukemia, B-ALL (Philadelphia chromosome+), read-out: IC50 of Compounds in Suspension Cell Types", "procedure": "as §1, §2"}, "Z138, JeKo-1": {"tested_on": "Z138, JeKo-1", "assay": "IC50 cell-based assay, suspension cells, Z138, JeKo-1", "conditions": "Lymphoma, Mantle cell, read-out: IC50 of Compounds in Suspension Cell Types", "procedure": "as §1, §2"}, "Pfeiffer": {"tested_on": "Pfeiffer", "assay": "IC50 cell-based assay, suspension cells, Pfeiffer", "conditions": "Homo sapiens, Lymphoma, Diffuse large b-cell, read-out: IC50 of Compounds in Suspension Cell Types", "procedure": "as §1, §2"}},
  "note": "Like-named read-outs stand apart in the source and are kept apart here.",
  "data": [
    {"compound": "O=C(Nc1cc(F)cc(C(F)(F)F)c1)c1cc(-c2ccccc2)oc1C(F)(F)F", "note": "[Compound 6, 5-Phenyl-2-trifluoromethyl-furan-3-carboxylic acid (3-fluoro-5-trifluoromethyl-phenyl)-amide]", "values": [
      {"measurement": "IC50", "setting": "RT-4", "value": "> 20", "unit": "µM"},
      {"measurement": "IC50", "setting": "U87-MG", "value": "10 to 20", "unit": "µM"},
      {"measurement": "IC50", "setting": "[1]; MDA-MB-468, Breast, triple neg, 72 hours, Table 1, read-out: IC50 of Compounds in Adherent Cell Types", "value": "< 5", "unit": "µM"},
      {"measurement": "IC50", "setting": "[1]; MDA-MB-468 cells, Table 3, read-out: IC50 of Compounds in MDA-MB-468 Cells", "value": 4, "unit": "µM"},
      {"measurement": "IC50", "setting": "MCF-7", "value": "5 to 10", "unit": "µM"},
      {"measurement": "IC50", "setting": "SKBR-3", "value": "< 5", "unit": "µM"},
      {"measurement": "IC50", "setting": "MDA-MB-361", "value": "10 to 20", "unit": "µM"},
      {"measurement": "IC50", "setting": "MDA-MB-231", "value": "5 to 10", "unit": "µM"},
      {"measurement": "IC50", "setting": "1937", "value": "5 to 10", "unit": "µM"},
      {"measurement": "IC50", "setting": "HT-29", "value": "> 20", "unit": "µM"},
      {"measurement": "IC50", "setting": "SK-MEL-28", "value": "5 to 10", "unit": "µM"},
      {"measurement": "IC50", "setting": "Caki-1", "value": "5 to 10", "unit": "µM"},
      {"measurement": "IC50", "setting": "Hep-G2", "value": "> 20", "unit": "µM"},
      {"measurement": "IC50", "setting": "A549", "value": "5 to 10", "unit": "µM"},
      {"measurement": "IC50", "setting": "H-460", "value": "> 20", "unit": "µM"},
      {"measurement": "IC50", "setting": "OVCAR-3", "value": "5 to 10", "unit": "µM"},
      {"measurement": "IC50", "setting": "AsPC-1", "value": "5 to 10", "unit": "µM"},
      {"measurement": "IC50", "setting": "Panc-1", "value": "5 to 10", "unit": "µM"},
      {"measurement": "IC50", "setting": "FaDu", "value": "5 to 10", "unit": "µM"},
      {"measurement": "IC50", "setting": "A431", "value": "5 to 10", "unit": "µM"},
      {"measurement": "IC50", "setting": "HL-60", "value": "5 to 10", "unit": "µM"},
      {"measurement": "IC50", "setting": "MHH-CALL-4", "value": "10 to 20", "unit": "µM"},
      {"measurement": "IC50", "setting": "Kg1a", "value": "10 to 20", "unit": "µM"},
      {"measurement": "IC50", "setting": "Nalm-6", "value": "< 5", "unit": "µM"},
      {"measurement": "IC50", "setting": "Nalm-6-VR", "value": "< 5", "unit": "µM"},
      {"measurement": "IC50", "setting": "SupB15", "value": "5 to 10", "unit": "µM"},
      {"measurement": "IC50", "setting": "Z138, JeKo-1", "value": "5 to 10", "unit": "µM"},
      {"measurement": "IC50", "setting": "Pfeiffer", "value": "10 to 20", "unit": "µM"}
    ]}
  ]
}
